The test system of data set [1] is T1, warfarin-HSA complex (Site I).
T1 construct: purchased Sigma-Aldrich
Kind of data set: Fluorescence-based displacement of warfarin from HSA. Format: binding, human. The following applies: warfarin 1.0 μM, HSA 3.5 μM, DHF 0-10 μM, PBS pH 7.4, λex 317 nm. The protocol: Ultraviolet (UV)-Vis spectra of DHF were recorded employing a Halo DB-20 spectrophotometer (Dynamica; Dietikon, Switzerland), after which the inner filter effect of DHF was corrected in each experiment based on the following equation [26, 28]:(2) Icorr=Iobs×e^(Aex+ Aem)/2, where Icorr and Iobs indicate the corrected and the measured fluorescence emission intensity, respectively, while Aex and Aem denote the absorption of DHF at the excitation and emission wavelengths used, respectively.

The test system of a further data set is T2, HSA Site II (naproxen).
T2 construct: purchased Sigma-Aldrich
Kind of data set: Ultrafiltration: displacement of Site II marker naproxen from HSA. The following applies: naproxen 1.0 μM, HSA 1.5 μM, PBS pH 7.4. Format: binding, human. How it is done:
Pall Microsep Advance centrifugal devices with a 10-kDa molecular weight cut-off (MWCO) value (VWR; Budapest, Hungary) were applied. […] Before ultrafiltration, the filter units were washed once with 3.0 mL of distilled water and twice with 3.0 mL of PBS; then, samples (with a 2.5 mL volume) were driven through the filters by centrifugation (10 min, 7500× g, fixed-angle rotor, 25 °C). The concentrations of site markers in the filtrates were quantified with HPLC (see Section 2.5). Naproxen was analyzed in the filtrates as described earlier. […] The mobile phase contained acetonitrile and sodium acetate buffer (6.9 mM, pH 4.0) (50:50 v/v%). […] Naproxen was detected at 230 nm.

The next data set deals with T3, HSA Site I (warfarin).
T3 construct: purchased Sigma-Aldrich
Kind of data set: Ultrafiltration: displacement of Site I marker warfarin from HSA. Type of data set: binding, human. The following applies: warfarin 1.0 μM, HSA 5.0 μM, PBS pH 7.4. The protocol:
Pall Microsep Advance centrifugal devices with a 10-kDa molecular weight cut-off (MWCO) value (VWR; Budapest, Hungary) were applied. […] Before ultrafiltration, the filter units were washed once with 3.0 mL of distilled water and twice with 3.0 mL of PBS; then, samples (with a 2.5 mL volume) were driven through the filters by centrifugation (10 min, 7500× g, fixed-angle rotor, 25 °C). The concentrations of site markers in the filtrates were quantified with HPLC (see Section 2.5). […] The samples were driven through a Nova-Pak C18 guard column (3.9 × 20 mm, 4 μm; Waters,) and a Nova-Pak C18 analytical column (3.9 × 150 mm, 4 μm; Waters). The mobile phase contained sodium phosphate buffer (25 mM, pH 7.0), methanol, and acetonitrile (70:25:5 v/v%).

Details of data set [2]: method as in PMID 29295929. The following applies: mice, cited from earlier work.
Data set [3] deals with T4, human serum albumin (HSA).
T4 construct: purchased Sigma-Aldrich
The experiment in a line: Fluorescence quenching of HSA by DHF (Stern-Volmer, Hyperquad2006). Type of data set: binding. The following applies: HSA 2 μM, PBS pH 7.4, 25 °C. The protocol: Fluorescence spectroscopic measurements were carried out using a Hitachi F-4500 fluorescence spectrophotometer (Tokyo, Japan). The binding constant of the DHF–HSA complex was determined by fluorescence quenching, during which increasing amounts of DHF (final concentrations: 0, 0.5, 1.0, 2.0, 3.0, 4.0, 5.0, and 6.0 μM) were added to HSA (2 μM) in phosphate buffered saline (PBS; pH 7.4; containing 8.00 g/L NaCl, 0.20 g/L KCl, 1.81 g/L Na2HPO4 × 2H2O, and 0.24 g/L KH2PO4); then, emission spectra were recorded using 295-nm excitation wavelength (at 25 °C, in the presence of air). DHF-HSA interaction was evaluated using the graphical application of the Stern-Volmer equation [25, 26]:(1) I0/I=[…], where I0 and I are the fluorescence emission intensity of HSA at 340 nm in the absence and presence of DHF, respectively. KSV denotes the Stern–Volmer quenching constant (unit: L/mol), and [Q] is the concentration of DHF (unit: mol/L). Furthermore, the binding constant (K; unit: L/mol) of the DHF–HSA complex was determined by nonlinear fitting applying the Hyperquad2006 software as described elsewhere. […]

The target in the next data set is CYP2C19 (Homo sapiens, UniProt P33261). The experiment in a line: CYP2C19 in vitro enzyme assay (S-mephenytoin to 4-hydroxymephenytoin). Type of data set: biochemical. The protocol:
To study the inhibitory effect of DHF on CYP2C19, S-mephenytoin was used as the substrate. During the enzyme-catalyzed reaction, 4-hydroxymephenytoin is formed. […] The incubation was performed in a thermomixer (120 min, 600 rpm, 30 °C). […] After centrifugation (10 min, 14,000× g, 25 °C), S-mephenytoin and 4-hydroxymephenytoin were quantified in the supernatants by HPLC (see Section 2.5).
The mobile phase contained acetonitrile, methanol, and sodium phosphate buffer (10 mM, pH 4.55) (20:15:65 v/v%). […] S-mephenytoin and 4-hydroxymephenytoin were detected at 230 nm.

Data set [4] has as its target T5, CYP3A4 (Homo sapiens, UniProt P08684). The experiment in a line: CYP3A4 in vitro enzyme assay (testosterone to 6β-hydroxytestosterone). The protocol: The inhibitory effect of DHF on CYP3A4 was investigated as described previously. In the enzyme-catalyzed reaction, testosterone is oxidized to 6β-hydroxytestosterone. […] The incubates (with 200 μL final volume) contained CypExpress 3A4 reagent (15 mg/mL; containing also the NADPH generating system), testosterone (5 μM), NADP^+ (200 μM), G6P (500 μM), and increasing concentrations of DHF (0, 5, 10, 15, and 20 μM) in potassium phosphate buffer (50 mM, pH 7.5). Samples were incubated in thermomixer (180 min, 600 rpm, 30 °C). The reaction was started by the addition of the enzyme and stopped by the addition of 100 μL of ice-cold methanol. After centrifugation (10 min, 14,000× g, 25 °C), testosterone and 6β-hydroxytestosterone were analyzed in the supernatants by HPLC (see Section 2.5).
Testosterone and 6β-hydroxytestosterone (CYP3A4 assay) were quantified as reported previously. The samples were driven through a Phenomenex Security Guard (C18, 4.0 × 3.0 mm) guard column linked to a Kinetex EVO C18 (150 × 4.6 mm, 5 μm) analytical column (Phenomenex). The mobile phase contained methanol, water, and glacial acetic acid (59:40:1 v/v%). The isocratic elution was performed at 1.2 mL/min flow rate at room temperature. Testosterone and 6β-hydroxytestosterone were detected at 240 nm.

For data set [5], the target named is T6, xanthine oxidase (XO; from bovine milk) (Bos taurus, UniProt P80457).
T6 construct: xanthine oxidase (XO; from bovine milk); purchased Sigma-Aldrich; host or cells: bovine milk
T6 sequence (P80457 whole entry): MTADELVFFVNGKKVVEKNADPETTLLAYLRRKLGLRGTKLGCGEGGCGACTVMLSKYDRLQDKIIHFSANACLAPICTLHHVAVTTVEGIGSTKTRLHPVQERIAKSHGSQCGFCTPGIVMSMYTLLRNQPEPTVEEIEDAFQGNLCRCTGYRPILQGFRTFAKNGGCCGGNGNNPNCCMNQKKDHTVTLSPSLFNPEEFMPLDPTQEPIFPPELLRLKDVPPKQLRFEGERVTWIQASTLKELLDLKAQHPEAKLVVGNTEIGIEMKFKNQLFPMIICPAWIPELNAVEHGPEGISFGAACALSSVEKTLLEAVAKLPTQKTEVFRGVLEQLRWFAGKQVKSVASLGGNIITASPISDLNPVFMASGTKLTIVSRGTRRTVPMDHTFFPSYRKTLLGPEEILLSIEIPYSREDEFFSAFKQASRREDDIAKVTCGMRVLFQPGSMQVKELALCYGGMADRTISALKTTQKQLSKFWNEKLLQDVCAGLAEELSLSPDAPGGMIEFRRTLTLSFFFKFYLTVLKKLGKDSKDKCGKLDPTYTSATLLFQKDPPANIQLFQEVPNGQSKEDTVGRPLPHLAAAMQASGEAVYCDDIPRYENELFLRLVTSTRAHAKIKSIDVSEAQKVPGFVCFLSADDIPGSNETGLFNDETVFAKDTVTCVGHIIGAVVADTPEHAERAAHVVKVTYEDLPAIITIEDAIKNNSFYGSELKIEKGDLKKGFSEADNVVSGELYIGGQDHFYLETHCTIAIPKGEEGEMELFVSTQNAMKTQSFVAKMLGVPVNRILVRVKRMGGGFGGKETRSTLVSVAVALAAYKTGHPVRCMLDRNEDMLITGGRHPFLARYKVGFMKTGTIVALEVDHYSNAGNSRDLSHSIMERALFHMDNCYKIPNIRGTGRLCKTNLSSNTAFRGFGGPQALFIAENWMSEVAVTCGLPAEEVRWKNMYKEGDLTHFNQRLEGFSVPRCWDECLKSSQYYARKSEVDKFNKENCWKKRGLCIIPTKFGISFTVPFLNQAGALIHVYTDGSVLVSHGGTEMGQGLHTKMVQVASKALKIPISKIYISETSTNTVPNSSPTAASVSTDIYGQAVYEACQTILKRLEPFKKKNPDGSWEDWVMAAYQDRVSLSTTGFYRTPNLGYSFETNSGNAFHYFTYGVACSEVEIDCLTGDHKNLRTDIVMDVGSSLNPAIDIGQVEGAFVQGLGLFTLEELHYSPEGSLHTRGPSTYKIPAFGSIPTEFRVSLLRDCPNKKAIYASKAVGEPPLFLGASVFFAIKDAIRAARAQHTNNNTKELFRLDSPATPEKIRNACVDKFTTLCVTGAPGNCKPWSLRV
Kind of data set: Xanthine oxidase in vitro enzyme assay (6-mercaptopurine to 6-thiouric acid). Format: biochemical. The following applies: substrate 6-mercaptopurine 5.0 μM.
Description: The inhibitory action of DHF on XO was investigated as described earlier [31]. In the enzyme-catalyzed reaction, 6-mercaptopurine is oxidized to 6-thiouric acid. […] The incubates (with 500 μL final volume) contained XO enzyme (0.01 unit/mL), 6-mercaptopurine (5 μM), and increasing concentrations of DHF (0, 5, 10, 15, and 20 μM) in sodium phosphate buffer (50 mM, pH 7.5). Samples were incubated in thermomixer (40 min, 700 rpm, 37 °C). The reaction was started by the addition of the enzyme and stopped by the addition of 30 μL of perchloric acid (6 M). After the samples were vortexed and centrifuged (5 min, 1,4000× g, room temperature), a 300-μL aliquot of the supernatant was transferred into another Eppendorf tube; then, 36 μL of potassium hydroxide (1 M) was added to this fraction. Samples were cooled to 3 °C, then, centrifuged (5 min, 14,000× g, 3°C). 6-mercaptopurine and 6-thiouric acid were quantified in the supernatants by HPLC (see Section 2.5).
The samples were driven through a Phenomenex SecurityGuard (C18, 4.0 × 3.0 mm) guard column linked to a Phenomenex Gemini-NX C18 (150 × 4.6 mm, 3 μm) analytical column. The eluent contained methanol, acetonitrile, and 0.02 M orthophosphoric acid (4:5:91 v/v%). The isocratic elution was performed at 0.8 mL/min flow rate at room temperature. 6-mercaptopurine and 6-thiouric acid were detected at 334 nm.

Data set [6] concerns the target T7, CYP2C9 (Homo sapiens, UniProt P11712). Kind of data set: CYP2C9 in vitro enzyme assay (diclofenac to 4'-hydroxydiclofenac). How it is done:
The inhibitory action of DHF on CYP2C9 was investigated as described earlier. In the enzyme-catalyzed reaction, diclofenac is oxidized to 4′-hydroxydiclofenac. […] The incubates (with 200 μL final volume) contained CypExpress 2C9 reagent (8 mg/mL) including also the NADPH (nicotinamide adenine dinucleotide phosphate, reduced) generating system, diclofenac (15 μM), and increasing concentrations of DHF (0, 15, 30, 45, and 60 μM) in potassium phosphate buffer (50 mM, pH 7.5). The incubation was carried out in a thermomixer (80 min, 700 rpm, 30 °C). The reaction was started by the addition of the enzyme and stopped by the addition of 100 μL of ice-cold methanol; then, the samples were centrifuged (10 min, 14,000× g, 25 °C). Diclofenac and 4′-hydroxydiclofenac were analyzed in the supernatants by HPLC (see Section 2.5).
Diclofenac and 4′-hydroxydiclofenac (CYP2C9 assay) were quantified as reported previously. The samples were driven through a Phenomenex Security Guard (C8, 4.0 × 3.0 mm) guard column (Torrance, CA, USA) linked to an Eclipse C8 (150 × 4.6 mm, 5 μm; Agilent, Santa Clara, CA, USA) analytical column. The separation was carried out at 1.0 mL/min flow rate at room temperature. During the isocratic elution, the mobile phase contained acetonitrile and 6 mM orthophosphoric acid (52:48 v/v%). Diclofenac and 4′-hydroxydiclofenac were detected at 275 nm.

The conditions of data set [7]: cited from earlier work.
A further data set relates to HSA. The following applies: cited from earlier work.
The target of data set [8] is T7, CYP2C9. The following applies: same model as this study; cited from earlier work.
Data set [9] deals with T5, CYP3A4. Details: method as in PMID 30142539. The following applies: same model as this study; cited from earlier work.

pIC50: −log10 of the molar value. Where “and” joins values, the source holds several entries; their conditions need not be identical. Identical values can stand only once. Like-named read-outs stand apart in the source and are kept apart here.

T7 sequence (P11712 whole entry): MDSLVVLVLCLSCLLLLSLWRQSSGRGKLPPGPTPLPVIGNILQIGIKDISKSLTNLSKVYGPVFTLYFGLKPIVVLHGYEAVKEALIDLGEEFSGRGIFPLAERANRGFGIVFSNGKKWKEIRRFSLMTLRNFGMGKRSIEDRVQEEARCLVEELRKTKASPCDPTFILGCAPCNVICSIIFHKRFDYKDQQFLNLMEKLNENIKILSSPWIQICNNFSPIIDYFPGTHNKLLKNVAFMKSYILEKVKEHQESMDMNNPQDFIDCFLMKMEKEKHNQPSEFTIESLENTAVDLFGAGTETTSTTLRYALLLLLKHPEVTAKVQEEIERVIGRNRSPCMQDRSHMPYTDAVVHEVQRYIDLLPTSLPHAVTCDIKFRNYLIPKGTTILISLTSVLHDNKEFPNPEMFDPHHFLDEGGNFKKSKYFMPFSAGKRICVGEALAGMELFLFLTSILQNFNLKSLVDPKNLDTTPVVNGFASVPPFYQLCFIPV
T5 sequence (P08684 whole entry): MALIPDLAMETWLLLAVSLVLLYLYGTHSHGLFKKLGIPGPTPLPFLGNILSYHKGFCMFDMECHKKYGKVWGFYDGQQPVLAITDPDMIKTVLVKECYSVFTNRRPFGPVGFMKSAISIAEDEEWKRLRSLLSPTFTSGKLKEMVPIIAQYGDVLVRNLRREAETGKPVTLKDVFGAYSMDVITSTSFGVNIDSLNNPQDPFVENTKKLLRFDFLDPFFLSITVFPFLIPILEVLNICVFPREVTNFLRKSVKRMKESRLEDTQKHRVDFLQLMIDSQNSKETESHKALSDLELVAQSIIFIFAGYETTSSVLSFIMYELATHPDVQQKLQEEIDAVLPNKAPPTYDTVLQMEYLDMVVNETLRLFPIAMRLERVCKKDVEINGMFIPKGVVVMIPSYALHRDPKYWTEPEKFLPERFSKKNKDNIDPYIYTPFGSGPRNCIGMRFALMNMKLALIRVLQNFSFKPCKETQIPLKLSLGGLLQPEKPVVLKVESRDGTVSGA
Chain of CYP2C19 (P33261 whole entry): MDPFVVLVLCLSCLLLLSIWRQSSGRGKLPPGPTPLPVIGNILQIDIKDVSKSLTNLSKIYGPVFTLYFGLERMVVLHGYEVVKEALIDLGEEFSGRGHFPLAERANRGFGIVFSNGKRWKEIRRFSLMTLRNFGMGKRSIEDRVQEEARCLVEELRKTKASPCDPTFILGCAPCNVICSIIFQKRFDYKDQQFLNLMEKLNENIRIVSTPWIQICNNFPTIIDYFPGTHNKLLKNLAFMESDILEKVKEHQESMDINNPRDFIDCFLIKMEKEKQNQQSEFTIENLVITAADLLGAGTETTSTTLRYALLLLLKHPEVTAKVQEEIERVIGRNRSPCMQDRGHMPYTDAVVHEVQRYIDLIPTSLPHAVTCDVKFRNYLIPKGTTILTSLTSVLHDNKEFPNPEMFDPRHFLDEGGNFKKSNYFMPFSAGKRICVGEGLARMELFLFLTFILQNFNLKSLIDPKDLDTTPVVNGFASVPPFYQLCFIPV

By pIC50 is commonly meant the IC50 on a negative log10 scale, so that one unit is a factor of ten. A lower pIC50 goes with a large IC50. Regarding `O=c1cc(-c2ccccc2)oc2c(O)c(O)ccc12` [DHF, 7,8-dihydroxyflavone], the “effect on fluorescence emission signal of warfarin at 379 nm” value in [1] was “strongly decreased”. Moreover, the “further fraction of total naproxen in the filtrate” value is listed as 14% in the data set on HSA Site II (naproxen) (10 μM DHF) and 22% with HSA Site II (naproxen) (20 μM DHF). The figures for the “fraction of total warfarin became unbound” value with HSA Site I (warfarin) (10 μM DHF) and with HSA Site I (warfarin) (20 μM DHF) were 12% and 21%, respectively. Also, in [2] (per os 15-50 mg/kg DHF), the plasma concentrations was 33 to 192 nM. Further, the oral bioavailability entry in data set [2] was “approximately 4.5%”. For the same compound, the “Stern-Volmer quenching constant KSV” value in data set [3] (λex 295 nm, λem 340 nm) came to 344000 ± 3000 L/mol. For the same compound, the “binding constant K of DHF-HSA complex” value in data set [3] (nonlinear fitting with Hyperquad2006) was 490000 L/mol and 487000 ± 7000 L/mol. Moreover, the pIC50 at CYP2C19 was 4.72; against CYP3A4 [4], 4.84; in data set [5] it was 4.96; against CYP2C9 [6], 4.46. The “IC50(rel) (IC50 divided by substrate concentration)” value on CYP2C19 (human, 120 min, pH 7.5) stood at 3.8; against CYP3A4 [4] (human, 180 min, pH 7.5) it was 2.9; at CYP2C9 [6] (human, 80 min, pH 7.5), 2.3. Besides, the “α (IC50 of DHF divided by IC50 of positive control)” value on CYP2C9 [6] (human, 80 min, pH 7.5) worked out at 1.0.
In the case of `Clc1ccccc1CN1CCc2sccc2C1` [TIC, ticlopidine], the peak plasma concentrations in [7] (chronic treatment, oral 250 mg twice daily, men) was 3.4 to 4.1 µM. Further, the “average peak plasma concentrations” value in [7] (oral 3 × 100 mg daily, healthy subjects) is “approximately 3.5 μM”. The peak plasma concentration in data set [7] (oral single 250 mg dose) was 1.3 to 2.6 µM.
Consider `CC(=O)CC(c1ccccc1)c1c(O)c2ccccc2oc1=O` (stereo not shown) [WAR, warfarin, reference compound], for which the “binding constant K to HSA” value with HSA (warfarin-HSA) is 340000 L/mol. Further, on CYP2C9 [6] (human, 80 min, pH 7.5), the “IC50(rel) (IC50 divided by substrate concentration)” value stood at 2.3.
For the compound `COc1ccc(-c2oc3cc(OC)c(OC)c(O)c3c(=O)c2OC)cc1O` [casticin], on CYP2C9 [8], the “fold weaker inhibitor of CYP2C9 compared to DHF” value is on record as 1.3 fold.
Turning to `O=c1cc(-c2ccccc2)oc2cc(O)cc(O)c12` [chrysin, 5,7-dihydroxyflavone], the “binding constant K to HSA” value in the data set with HSA (chrysin-HSA) was 340000 L/mol.
For the compound `Oc1ccc(/C=C/c2cc(O)cc(O)c2)cc1` [resveratrol], the “inhibitory effect on CYP3A4 compared to DHF” value on CYP3A4 [9] is “two-fold stronger inhibitor”.

These data come from publication PMC6920897, “Interactions of 7,8-Dihydroxyflavone with Serum Albumin as well as with CYP2C9, CYP2C19, CYP3A4, and Xanthine Oxidase Biotransformation Enzymes” (Biomolecules, 2019).
